Data taken from patent US20250215030A1, “STAT MODULATORS AND USES THEREOF” (Recludix Pharma, Inc., priority 2022, published 2025).

Columns and labels:
[1] = molecular target: T1, Recombinant STAT6 protein (STAT6(W123-T658)) (Homo sapiens, UniProt P42226); assay: STAT6 Fluorescence Polarization (FP) Assay; assay type: binding; settings: STAT6(W123-T658) 250 nM, probe 5-FAM-ApYKPFQDLI-NH2 2 nM, 45-minute incubation
T1 construct: STAT6(W123-T658)
T1 sequence (P42226 123-658): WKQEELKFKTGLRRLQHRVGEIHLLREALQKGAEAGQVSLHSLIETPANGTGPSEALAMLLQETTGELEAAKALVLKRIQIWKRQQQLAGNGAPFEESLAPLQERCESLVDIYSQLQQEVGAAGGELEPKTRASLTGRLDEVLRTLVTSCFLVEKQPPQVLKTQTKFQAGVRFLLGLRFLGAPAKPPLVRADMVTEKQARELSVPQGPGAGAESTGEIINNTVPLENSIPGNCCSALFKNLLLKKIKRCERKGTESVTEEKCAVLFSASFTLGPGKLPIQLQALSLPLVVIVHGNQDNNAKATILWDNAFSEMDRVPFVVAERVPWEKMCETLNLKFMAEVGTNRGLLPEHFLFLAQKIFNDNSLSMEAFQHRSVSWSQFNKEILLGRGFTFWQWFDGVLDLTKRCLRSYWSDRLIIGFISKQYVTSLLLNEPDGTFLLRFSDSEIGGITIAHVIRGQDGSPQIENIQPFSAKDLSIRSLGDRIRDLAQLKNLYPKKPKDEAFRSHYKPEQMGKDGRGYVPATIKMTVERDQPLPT
Outline: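 STAT6 (W123-T658) at 250 nM mixed with 2 nM 5-FAM-ApYKPFQDLI-NH2 probe in HEPES pH 7.4 buffer with DTT and Tween 20, 1% DMSO final. Polarization read after 45 min at room temperature; IC50 by nonlinear regression of mP versus log concentration, reported in bins A–D.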

[2] = molecular target: T2, Recombinant STAT3 protein (STAT3(G127-I722)) (Homo sapiens, UniProt P40763); assay: STAT3 Fluorescence Polarization (FP) Assay; assay type: binding; settings: STAT3(G127-I722) 25 nM, probe 5-FAM-GpYLPQTV-NH2 2 nM, 45-minute incubation
T2 construct: STAT3(G127-I722)
Outline: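 STAT3(G127-I722) at 25 nM and 5-FAM-GpYLPQTV-NH2 probe at 2 nM in HEPES pH 7.4 buffer with NaCl, EDTA, Tween 20, DTT; 1% DMSO. FP read after 45 min at room temperature; IC50 by nonlinear regression of mP vs log concentration, binned A ≤100 nM to D >10 μM.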

T2 sequence (P40763 127-722, species assumed): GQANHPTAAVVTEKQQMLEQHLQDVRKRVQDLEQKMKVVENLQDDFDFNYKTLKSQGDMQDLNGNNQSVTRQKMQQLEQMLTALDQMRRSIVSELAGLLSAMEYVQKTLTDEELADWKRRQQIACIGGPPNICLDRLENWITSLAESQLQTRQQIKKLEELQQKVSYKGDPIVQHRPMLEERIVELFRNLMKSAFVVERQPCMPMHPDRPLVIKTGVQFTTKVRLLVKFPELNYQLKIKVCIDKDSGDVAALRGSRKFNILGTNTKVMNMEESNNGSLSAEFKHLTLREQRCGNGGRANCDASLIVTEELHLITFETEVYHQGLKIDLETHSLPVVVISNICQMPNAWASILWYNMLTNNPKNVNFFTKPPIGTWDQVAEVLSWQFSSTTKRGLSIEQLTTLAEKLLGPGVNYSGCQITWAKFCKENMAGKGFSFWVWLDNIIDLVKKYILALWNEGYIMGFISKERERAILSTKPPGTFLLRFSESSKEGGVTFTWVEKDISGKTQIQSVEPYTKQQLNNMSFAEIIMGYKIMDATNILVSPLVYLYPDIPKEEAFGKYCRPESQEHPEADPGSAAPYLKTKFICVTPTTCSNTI

Structure (SMILES)	IC50 [1]	IC50 [2]
C[C@]12CC(NC(=O)c3cc4cc(C(F)(F)P(=O)(O)O)ccc4s3)C(=O)N3[C@H](CC[C@H]3C(=O)N3CC(c4cccnc4)C3)[C@H]1C2 (stereo partly drawn) [Compound 37, (difluoro(2-(((3S,6S,7aS,8aR,9aR)-7a-methyl-5-oxo-3-(3-(pyridin-3-yl)azetidine-1-carbonyl)decahydro-1H-cyclopropa[d]pyrrolo[1,2-a]azocin-6-yl)carbamoyl)benzo[b]thiophen-5-yl)methyl)phosphonic acid]	3 to 30 µM	< 0.1 µM
C[C@@]12C[C@H](NC(=O)c3cc4cc(C(F)(F)P(=O)(O)O)ccc4s3)C(=O)N3[C@H](CC[C@H]3C(=O)N3CC(c4cccnc4)C3)[C@@H]1C2 [Compound 38, (difluoro(2-(((3S,6S,7aR,8aS,9aR)-7a-methyl-5-oxo-3-(3-(pyridin-3-yl)azetidine-1-carbonyl)decahydro-1H-cyclopropa[d]pyrrolo[1,2-a]azocin-6-yl)carbamoyl)benzo[b]thiophen-5-yl)methyl)phosphonic acid]	3 to 30 µM	0.1 to 1 µM
O=C(N[C@H]1C[C@@H]2C[C@@H]2C[C@H]2CC[C@@H](C(=O)N3CCN(C4COC4)CC3)N2C1=O)c1cc2cc(C(F)(F)P(=O)(O)O)ccc2s1 [Compound 43, (difluoro(2-(((3S,6S,7aS,8aR,9aR)-3-(4-(oxetan-3-yl)piperazine-1-carbonyl)-5-oxodecahydro-1H-cyclopropa[d]pyrrolo[1,2-a]azocin-6-yl)carbamoyl)benzo[b]thiophen-5-yl)methyl)phosphonic acid]	3 to 30 µM	0.1 to 1 µM
O=C(N[C@H]1C[C@@H]2C[C@@H]2C[C@H]2CC[C@@H](C(=O)N3CC(n4ccnc4)C3)N2C1=O)c1ccc2ccc(C(F)(F)P(=O)(O)O)cc2c1 [Compound 46, ((7-(((3S,6S,7aS,8aR,9aR)-3-(3-(1H-imidazol-1-yl)azetidine-1-carbonyl)-5-oxodecahydro-1H-cyclopropa[d]pyrrolo[1,2-a]azocin-6-yl)carbamoyl)naphthalen-2-yl)difluoromethyl)phosphonic acid]	0.3 to 3 µM	< 0.1 µM
O=C(N[C@H]1C[C@H]2C[C@H]2C[C@H]2CC[C@@H](C(=O)N[C@@H]3CCN(c4cccnc4)C3)N2C1=O)c1cc2cc(C(F)(F)P(=O)(O)O)ccc2s1 [Compound 47, (difluoro(2-(((3S,6S,7aR,8aS,9aR)-5-oxo-3-(((R)-1-(pyridin-3-yl)pyrrolidin-3-yl)carbamoyl)decahydro-1H-cyclopropa[d]pyrrolo[1,2-a]azocin-6-yl)carbamoyl)benzo[b]thiophen-5-yl)methyl)phosphonic acid]	0.3 to 3 µM	< 0.1 µM
O=C(N[C@H]1C[C@@H]2C[C@@H]2C[C@H]2CC[C@@H](C(=O)N[C@@H]3CCN(C4COC4)C3)N2C1=O)c1cc2cc(C(F)(F)P(=O)(O)O)ccc2s1 [Compound 48, (difluoro(2-(((3S,6S,7aS,8aR,9aR)-3-(((R)-1-(oxetan-3-yl)pyrrolidin-3-yl)carbamoyl)-5-oxodecahydro-1H-cyclopropa[d]pyrrolo[1,2-a]azocin-6-yl)carbamoyl)benzo[b]thiophen-5-yl)methyl)phosphonic acid]	3 to 30 µM	0.1 to 1 µM
O=C(N[C@H]1C[C@@H]2C[C@@H]2C[C@H]2CC[C@@H](C(=O)N[C@@H]3CCN(c4cccnn4)C3)N2C1=O)c1cc2cc(C(F)(F)P(=O)(O)O)ccc2s1 [Compound 51, (difluoro(2-(((3S,6S,7aS,8aR,9aR)-5-oxo-3-(((R)-1-(pyridazin-3-yl)pyrrolidin-3-yl)carbamoyl)decahydro-1H-cyclopropa[d]pyrrolo[1,2-a]azocin-6-yl)carbamoyl)benzo[b]thiophen-5-yl)methyl)phosphonic acid]	0.3 to 3 µM	< 0.1 µM

The next lines start with the values.

IC50 [1]	IC50 [2]	Structure (SMILES)
0.3 to 3 µM	< 0.1 µM	O=C(N[C@H]1C[C@@H]2C[C@@H]2C[C@H]2CC[C@@H](C(=O)N3CC(c4cccnc4)C3)N2C1=O)c1cc2cc(C(F)(F)P(=O)(O)O)ccc2s1 [Compound 36, (difluoro(2-(((3S,6S,7aS,8aR,9aR)-5-oxo-3-(3-(pyridin-3-yl)azetidine-1-carbonyl)decahydro-1H-cyclopropa[d]pyrrolo[1,2-a]azocin-6-yl)carbamoyl)benzo[b]thiophen-5-yl)methyl)phosphonic acid]
3 to 30 µM	< 0.1 µM	O=C(N[C@H]1C[C@@H]2C[C@@H]2C[C@H]2CC[C@@H](C(=O)N[C@@H]3CCN(c4ccccn4)C3)N2C1=O)c1cc2cc(C(F)(F)P(=O)(O)O)ccc2s1 [Compound 39, (difluoro(2-(((3S,6S,7aS,8aR,9aR)-5-oxo-3-(((R)-1-(pyridin-2-yl)pyrrolidin-3-yl)carbamoyl)decahydro-1H-cyclopropa[d]pyrrolo[1,2-a]azocin-6-yl)carbamoyl)benzo[b]thiophen-5-yl)methyl)phosphonic acid]
0.3 to 3 µM	< 0.1 µM	CC(=O)N1CC2(C1)CN(C(=O)[C@@H]1CC[C@@H]3C[C@H]4C[C@H]4C[C@H](NC(=O)c4cc5cc(C(F)(F)P(=O)(O)O)ccc5s4)C(=O)N31)C2 [Compound 40, ((2-(((3S,6S,7aS,8aR,9aR)-3-(6-acetyl-2,6-diazaspiro[3.3]heptane-2-carbonyl)-5-oxodecahydro-1H-cyclopropa[d]pyrrolo[1,2-a]azocin-6-yl)carbamoyl)benzo[b]thiophen-5-yl)difluoromethyl)phosphonic acid]
0.3 to 3 µM	< 0.1 µM	O=C(N[C@H]1C[C@@H]2C[C@@H]2C[C@H]2CC[C@@H](C(=O)N3CC4(CN(C(=O)Cc5ccccc5)C4)C3)N2C1=O)c1cc2cc(C(F)(F)P(=O)(O)O)ccc2s1 [Compound 41, (difluoro(2-(((3S,6S,7aS,8aR,9aR)-5-oxo-3-(6-(2-phenylacetyl)-2,6-diazaspiro[3.3]heptane-2-carbonyl)decahydro-1H-cyclopropa[d]pyrrolo[1,2-a]azocin-6-yl)carbamoyl)benzo[b]thiophen-5-yl)methyl)phosphonic acid]
0.3 to 3 µM	0.1 to 1 µM	O=C(N[C@H]1C[C@@H]2C[C@@H]2C[C@H]2CC[C@@H](C(=O)N3CCN(C(=O)C4COC4)CC3)N2C1=O)c1cc2cc(C(F)(F)P(=O)(O)O)ccc2s1 [Compound 42, (difluoro(2-(((3S,6S,7aS,8aR,9aR)-3-(4-(oxetane-3-carbonyl)piperazine-1-carbonyl)-5-oxodecahydro-1H-cyclopropa[d]pyrrolo[12-a]azocin-6-yl)carbamoyl)benzo[b]thiophen-5-yl)methyl)phosphonic acid]
0.3 to 3 µM	< 0.1 µM	O=C(N[C@H]1C[C@@H]2C[C@@H]2C[C@H]2CC[C@@H](C(=O)NC3CN(c4ccccn4)C3)N2C1=O)c1cc2cc(C(F)(F)P(=O)(O)O)ccc2s1 [Compound 44, (difluoro(2-(((3S,6S,7aS,8aR,9aR)-5-oxo-3-((1-(pyridin-2-yl)azetidin-3-yl)carbamoyl)decahydro-1H-cyclopropa[d]pyrrolo[1,2-a]azocin-6-yl)carbamoyl)benzo[b]thiophen-5-yl)methyl)phosphonic acid]
3 to 30 µM	< 0.1 µM	N#Cc1cccc(C2CN(C(=O)[C@@H]3CC[C@@H]4C[C@H]5C[C@H]5C[C@H](NC(=O)c5cc6cc(C(F)(F)P(=O)(O)O)ccc6s5)C(=O)N43)C2)c1 [Compound 49, ((2-(((3S,6S,7aS,8aR,9aR)-3-(3-(3-cyanophenyl)azetidine-1-carbonyl)-5-oxodecahydro-1H-cyclopropa[d]pyrrolo[1,2-a]azocin-6-yl)carbamoyl)benzo[b]thiophen-5-yl)difluoromethyl)phosphonic acid]
3 to 30 µM	< 0.1 µM	O=C(N[C@H]1C[C@@H]2C[C@@H]2C[C@H]2CC[C@@H](C(=O)N3CC(c4cnccn4)C3)N2C1=O)c1cc2cc(C(F)(F)P(=O)(O)O)ccc2s1 [Compound 50, (difluoro(2-(((3S,6S,7aS,8aR,9aR)-5-oxo-3-(3-(pyrazin-2-yl)azetidine-1-carbonyl)decahydro-1H-cyclopropa[d]pyrrolo[1,2-a]azocin-6-yl)carbamoyl)benzo[b]thiophen-5-yl)methyl)phosphonic acid]
0.3 to 3 µM	0.1 to 1 µM	O=C(N[C@H]1C[C@@H]2C[C@@H]2C[C@H]2CC[C@@H](C(=O)N[C@@H]3CCN(c4ccccc4)C3)N2C1=O)c1cc2cc(C(F)(F)P(=O)(O)O)ccc2s1 [Compound 52, (difluoro(2-(((3S,6S,7aS,8aR,9aR)-5-oxo-3-(((R)-1-phenylpyrrolidin-3-yl)carbamoyl)decahydro-1H-cyclopropa[d]pyrrolo[1,2-a]azocin-6-yl)carbamoyl)benzo[b]thiophen-5-yl)methyl)phosphonic acid]
